Measurements: article PMC11331138, “Leveraging coevolutionary insights and AI-based structural modeling to unravel receptor–peptide ligand-binding mechanisms” (Proceedings of the National Academy of Sciences of the …, 2024)

Experiments:
B. rapa MIK2 = assay: ROS production, B. rapa MIK2 expressed in N. benthamiana; assay type: cell-based, Brassica rapa; details: 1 μM SCOOP
Description: (§1) removed and ROS production was measured upon addition of a 100-μL assay solution which contained 10 μg/mL
(§2) horseradish peroxidase (P6782, Merck), 10 mM luminol and the treatment (1 μM SCOOP, 0.1 μM flg22 or H2O).
(§3) Luminescence was quantified with a HIGH-RESOLUTION PHOTON COUNTING SYSTEM (HRPCS218, Photek). Four
(§4) technical replicates per biological replicate (specified in Fig. S2) were quantified for each treatment, significant
(§5) differences were determined by performing a two-group Mann-Whitney U Test between each SCOOP treatment
(§6) and the mock treatment. R and the R-packages dplyr (v1.1.2), ggpubr (v.0.6.0), and ggplot2 (v3.4.2) were used to
(§7) analyze and plot the data. The resulting figure was edited in Corel-DRAW Home & Student x7.
(§8) Functional validation MIK2 homologues
(§9) All constructs were created using a hierarchical modular cloning approach facilitated by the MoClo toolkit and the
(§10) MoClo Plant Parts kit (25, 26). For recombinant expression, we used the previously published Arabidopsis MIK2
(§11) sequence (L0 level backbone, CZLp4829) (27), and MIK2 homologues were synthesized with domesticated BsaI […]
(§12) while using diverse Arabidopsis SCOOPs (AA sequences, Dataset S1) and fl g22. Biological replicates were quantified […]
(§13) H2O and rested for a minimum of 30 min in the dark. Two readings were taken in a TECAN SPARK plate reader every […]

Arabidopsis Col-0 = details: selection criterion; ref [17]; cited from earlier work
Text: To test the conservation of plant responses to SCOOPs, we measured the production of ROS—a hallmark of LRR-RK activation—triggered by SCOOPs. […] The SCOOP SxS motif is unique across known plant-secreted signaling peptides in contrast to the N-terminal asparag ... || The S5 and S7 binding pockets were functionally validated by testing MIK2 variants using three experimental approaches; A) SCOOP12-binding to MIK2 ectodomain in vitro, B) SCOOP12-induced complex formation with its coreceptor BAK1 in vivo, and C) ROS production upon SCOOP treatments as a marker for receptor complex activation (Fig. 4 and SI Appendix, Fig. S6).

R. islandica MIK2 = assay: ROS production, R. islandica MIK2 expressed in N. benthamiana; assay type: cell-based, Rorippa islandica; details: 1 μM SCOOP
Description: as §1, §2, §3, §4, §5, §6, §7, §8, §9, §10, §11, §12, §13

D. strictus MIK2 = assay: ROS production, D. strictus MIK2 expressed in N. benthamiana; assay type: cell-based, Diptychocarpus strictus; details: 1 μM SCOOP
Description: as §1, §2, §3, §4, §5, §6, §7, §8, §9, §10, §11, §12, §13

[1] = target: T1, MIK2 (MALE DISCOVERER 1-INTERACTING RECEPTOR-LIKE KINASE 2) ectodomain, wild type (Arabidopsis thaliana, UniProt Q8VZG8 44-709); assay: ITC
T1 chain: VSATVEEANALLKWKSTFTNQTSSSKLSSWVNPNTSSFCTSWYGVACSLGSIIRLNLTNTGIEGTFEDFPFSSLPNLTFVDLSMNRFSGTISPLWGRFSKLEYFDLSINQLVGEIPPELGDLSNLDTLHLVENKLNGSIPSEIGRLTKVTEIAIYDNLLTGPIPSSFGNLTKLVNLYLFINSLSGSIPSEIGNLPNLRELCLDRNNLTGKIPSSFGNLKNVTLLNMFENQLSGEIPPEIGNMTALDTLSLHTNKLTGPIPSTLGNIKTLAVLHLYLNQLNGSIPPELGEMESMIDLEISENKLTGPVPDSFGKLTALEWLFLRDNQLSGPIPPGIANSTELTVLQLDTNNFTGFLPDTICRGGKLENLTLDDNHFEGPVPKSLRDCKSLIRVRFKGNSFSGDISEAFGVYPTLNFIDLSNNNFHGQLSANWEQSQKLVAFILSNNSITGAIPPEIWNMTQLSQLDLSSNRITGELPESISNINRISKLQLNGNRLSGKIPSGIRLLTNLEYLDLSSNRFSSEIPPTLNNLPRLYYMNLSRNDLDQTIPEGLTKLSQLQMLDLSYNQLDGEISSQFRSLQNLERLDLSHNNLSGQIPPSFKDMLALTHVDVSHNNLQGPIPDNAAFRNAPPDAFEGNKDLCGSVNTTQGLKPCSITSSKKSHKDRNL

[2] = target: MIK2 ectodomain S292A (S7 binding pocket variant) (Arabidopsis thaliana, UniProt Q8VZG8 44-709, S292A); assay: ITC
Chain of MIK2 ectodomain S292A (S7 binding pocket variant) (Q8VZG8 44-709 S292A): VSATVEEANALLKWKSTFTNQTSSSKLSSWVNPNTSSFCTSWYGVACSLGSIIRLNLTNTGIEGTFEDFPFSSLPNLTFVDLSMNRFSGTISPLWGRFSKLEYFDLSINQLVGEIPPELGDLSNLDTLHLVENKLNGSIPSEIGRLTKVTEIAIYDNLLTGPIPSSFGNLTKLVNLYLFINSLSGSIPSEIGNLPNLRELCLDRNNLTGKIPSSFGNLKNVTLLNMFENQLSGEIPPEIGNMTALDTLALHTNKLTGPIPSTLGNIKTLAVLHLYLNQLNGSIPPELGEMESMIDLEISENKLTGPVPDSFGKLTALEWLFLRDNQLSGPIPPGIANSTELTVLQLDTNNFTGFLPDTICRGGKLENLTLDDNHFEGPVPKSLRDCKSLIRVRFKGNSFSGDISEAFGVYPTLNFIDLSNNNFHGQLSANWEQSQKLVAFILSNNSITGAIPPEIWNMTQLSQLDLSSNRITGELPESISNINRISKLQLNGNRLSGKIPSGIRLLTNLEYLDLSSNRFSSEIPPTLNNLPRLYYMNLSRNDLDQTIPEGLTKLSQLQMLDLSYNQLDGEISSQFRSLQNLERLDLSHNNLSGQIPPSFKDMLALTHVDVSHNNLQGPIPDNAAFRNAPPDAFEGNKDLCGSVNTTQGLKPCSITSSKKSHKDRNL

RVPRSKSPPDRQW [SCOOP24]
SCOOP-induced ROS production (in words) (B. rapa MIK2): did not lead to significant ROS production
ROS production upon SCOOP treatment in Arabidopsis (Arabidopsis Col-0): robust ROS production

YVPPSKSRRGKGP [SCOOP16]
SCOOP-induced ROS production (in words) (R. islandica MIK2): conferred responsiveness
SCOOP-induced ROS production (in words) (D. strictus MIK2): conferred responsiveness
ROS production upon SCOOP treatment in Arabidopsis (Arabidopsis Col-0): robust ROS production

PVRSSQSSQAGGR [SCOOP12 (SERINE RICH ENDOGENOUS PEPTIDE 12), synthetic peptide]
Kd [1]: 2120 nM
Kd [2]: 1240 nM
